From ChEMBL document CHEMBL1126682, “Quinolone antimicrobial agents substituted with morpholines at the 7-position. Syntheses and structure-activity relationships” (J Med Chem, 1993) come the findings set out here.

Structures are written as SMILES. ≈ marks a conversion by molar mass, not a printed value. Bounds are passed on as bounds.

Data set [1] concerns Escherichia coli. Put plainly: Minimum inhibition concentration against Escherichia coli NIHJ JC-2 strain. Type of data set: functional.
In a further data set the test system is Enterococcus faecalis. Put plainly: Minimum inhibition concentration against Enterococcus faecalis LS-101 strain. The class given is functional.
The subject of the next data set is Pseudomonas aeruginosa. Put plainly: Minimum inhibition concentration against Pseudomonas aeruginosa U-31 strain. The class given is functional.
Data set [2] has as its system Staphylococcus aureus. The data set is described as follows: Minimum inhibition concentration against Staphylococcus aureus FDA209P strain. Type of data set: functional.
The next data set relates to Streptococcus pneumoniae. The data set is described as follows: Minimum inhibition concentration against Streptococcus pneumoniae Type I strain. Type of data set: functional.
Data set [3] is described as follows: The compound was evaluated for the solubility in water at 25 degrees Centigrade. Type of data set: ADME.
Data set [4] has as its system Escherichia coli. Put plainly: Minimum inhibitory concentration against Escherichia coli KC14 strain. The class given is functional.
For data set [5], the target named is GABA-A receptor; anion channel. The data set is described as follows: Inhibition of [3H]muscimol binding to GABA A receptor 4-biphenylacetic acid at 10 e-4 M. The class given is protein-complex assay. The following applies: read-out: IC50.
The target of data set [6] is T1, GABA-A receptor; anion channel (Homo sapiens) (UniProt P14867+P47870+P18507+P28472+P48169+Q99928+Q9UN88+P34903+O00591+O14764+Q8N1C3+P18505+P78334+P47869+P31644+Q16445). Put plainly: Percentage of GABA-induced chloride currents with 10 e-5 M 4-biphenylacetic acid. Type of data set: functional. The note with it: Bull Frog.
Data set [7] deals with T1, GABA-A receptor; anion channel (Homo sapiens). The data set is described as follows: Percentage of GABA-induced chloride currents with 10e-4 M 4-biphenylacetic acid. The following applies: Bull Frog. The class given is functional.
The target is the same in data set [8]. The data set is described as follows: Percentage of GABA-induced chloride currents with compound alone at 10 e-4 M. The class given is functional. The note with it: Bull Frog.
Data set [9] has as its system Mus musculus. Put plainly: Percentage of mice with convulsion (400 mg/kg fenbufen). The class given is functional.
Data set [10] concerns Mus musculus. The data set is described as follows: Percentage of mice with convulsion with compound alone at 400 mg/kg. The class given is functional.
In data set [11] the test system is Escherichia coli. Put plainly: Effective dose against Escherichia coli KC14 strain in mouse. Type of data set: functional.
The subject of data set [12] is Staphylococcus aureus. The data set is described as follows: Effective dose against Staphylococcus aureus smith strain in mouse. Type of data set: functional.
The subject of data set [13] is Staphylococcus aureus. The data set is described as follows: Minimum inhibitory concentration against Staphylococcus aureus Smith. The class given is functional.
Data set [14] deals with GABA-A receptor; anion channel. Put plainly: Inhibition of [3H]muscimol binding to GABA A receptor with compound alone at 10 e-4 M. The class given is protein-complex assay.

For the compound `CC(=O)NCC1CN(c2c(F)cc3c(=O)c(C(=O)O)cn(C4CC4)c3c2F)CCO1` (stereo unspecified), the MIC worked out at 1.56 µg/mL (≈ 3.7 µM) with Escherichia coli [1]; 0.78 µg/mL (≈ 1.85 µM) in the data set on Enterococcus faecalis; 12.5 µg/mL (≈ 29.7 µM) in the data set on Pseudomonas aeruginosa; 0.2 µg/mL (≈ 0.475 µM) in the data set with Staphylococcus aureus [2]; 0.78 µg/mL (≈ 1.85 µM) against Streptococcus pneumoniae.

Regarding `CN(Cc1ccccc1)CC1CN(c2c(F)cc3c(=O)c(C(=O)O)cn(C4CC4)c3c2F)CCO1` (stereo unspecified), the minimum inhibitory concentration (MIC) is 1.56 µg/mL (≈ 3.23 µM) against Escherichia coli [1]; 1.56 µg/mL (≈ 3.23 µM) in the data set on Enterococcus faecalis; 25 µg/mL (≈ 51.7 µM) in the data set on Pseudomonas aeruginosa; 0.39 µg/mL (≈ 0.807 µM) against Staphylococcus aureus [2]; 0.78 µg/mL (≈ 1.61 µM) in the data set on Streptococcus pneumoniae.

On to `NCC1CN(c2c(F)cc3c(=O)c(C(=O)O)cn(CCF)c3c2F)CCO1` (stereo unspecified), for which the MIC against Escherichia coli [1] stood at 6.25 µg/mL (≈ 16.2 µM); against Enterococcus faecalis, 0.78 µg/mL (≈ 2.02 µM); in the data set with Pseudomonas aeruginosa, 25 µg/mL (≈ 64.9 µM); against Staphylococcus aureus [2] it was 0.78 µg/mL (≈ 2.02 µM); in the data set on Streptococcus pneumoniae it was 3.13 µg/mL (≈ 8.12 µM).

Take `NCC1CN(c2c(F)cc3c(=O)c(C(=O)O)cn(C4CC4)c3c2Cl)CCO1` (stereo unspecified): the MIC against Escherichia coli [1] is 0.1 µg/mL (≈ 0.253 µM); in the data set on Enterococcus faecalis, 0.05 µg/mL (≈ 0.126 µM); against Pseudomonas aeruginosa, 1.56 µg/mL (≈ 3.94 µM); against Staphylococcus aureus [2], 0.012 µg/mL (≈ 0.0303 µM); against Streptococcus pneumoniae, 0.05 µg/mL (≈ 0.126 µM).

For the compound `NCC1CN(c2c(F)cc3c(=O)c(C(=O)O)cn(-c4cc(F)cc(F)c4)c3c2F)CCO1` (stereo unspecified), the MIC was determined as 0.39 µg/mL (≈ 0.864 µM) against Escherichia coli [1]; 0.39 µg/mL (≈ 0.864 µM) in the data set on Enterococcus faecalis; 6.25 µg/mL (≈ 13.8 µM) in the data set with Pseudomonas aeruginosa; 0.2 µg/mL (≈ 0.443 µM) against Staphylococcus aureus [2]; 0.2 µg/mL (≈ 0.443 µM) in the data set with Streptococcus pneumoniae.

Regarding `NCC1CN(c2cc3c(cc2F)c(=O)c(C(=O)O)cn3C2CC2)CCO1` (stereo unspecified), in [3], the concentration in solution (solubility) was 390 µg/mL (≈ 1080 µM). Further, the minimum inhibitory concentration (MIC) in the data set on Escherichia coli [1] was found to be 0.2 µg/mL (≈ 0.553 µM); against Escherichia coli [4], 0.1 µg/mL (≈ 0.277 µM); in the data set on Enterococcus faecalis, 0.2 µg/mL (≈ 0.553 µM); against Pseudomonas aeruginosa it was 1.56 µg/mL (≈ 4.32 µM); against Staphylococcus aureus [2], 0.2 µg/mL (≈ 0.553 µM); in the data set with Staphylococcus aureus [13], 0.05 µg/mL (≈ 0.138 µM). In the data set with Streptococcus pneumoniae, this compound yielded an MIC of 0.39 µg/mL (≈ 1.08 µM). Also, the IC50 in data set [5] and in [14] was more than 100 µM throughout. Further, the results for the Currents in data set [6], in [7] and in [8] were 90%, 81% and 93%, respectively. Further, the Convulsion in the data set on Mus musculus [9] and in the data set on Mus musculus [10] was 0% each time. The ED50 with Escherichia coli [11] turned out to be 0.139 mg mouse-1; in the data set on Staphylococcus aureus [12] it was 0.835 mg mouse-1.

Turning to `CNCC1CN(c2c(F)cc3c(=O)c(C(=O)O)cn(C4CC4)c3c2F)CCO1` (stereo unspecified), in [3], the solubility was 630 µg/mL (≈ 1600 µM). Further, the MIC was determined as 0.1 µg/mL (≈ 0.254 µM) in the data set with Escherichia coli [1]; 0.05 µg/mL (≈ 0.127 µM) against Escherichia coli [4]; 0.1 µg/mL (≈ 0.254 µM) with Enterococcus faecalis; 3.13 µg/mL (≈ 7.96 µM) in the data set on Pseudomonas aeruginosa; 0.025 µg/mL (≈ 0.0636 µM) in the data set with Staphylococcus aureus [2]; 0.012 µg/mL (≈ 0.0305 µM) with Staphylococcus aureus [13]. In the data set with Streptococcus pneumoniae, this compound came in with an MIC of 0.1 µg/mL (≈ 0.254 µM). Also, the concentration for half-maximal inhibition (IC50) in data set [5] and in data set [14] was more than 100 µM each time. For the same compound, the Currents in data set [6] is 90%; in [7], 78%; in data set [8], 94%. Further, the Convulsion with Mus musculus [9] and in the data set on Mus musculus [10] was 0% each time. Besides, the ED50 in the data set on Escherichia coli [11] is on record as 0.024 mg mouse-1; with Staphylococcus aureus [12], 0.044 mg mouse-1.

`CC1COc2c(N3CCOC(CN)C3)c(F)cc3c(=O)c(C(=O)O)cn1c23` (stereo unspecified): the MIC against Escherichia coli [1] worked out at 3.13 µg/mL (≈ 8.29 µM); in the data set with Enterococcus faecalis, 3.13 µg/mL (≈ 8.29 µM); in the data set with Pseudomonas aeruginosa it was 25 µg/mL (≈ 66.2 µM); against Staphylococcus aureus [2], 0.78 µg/mL (≈ 2.07 µM); against Streptococcus pneumoniae it was 12.5 µg/mL (≈ 33.1 µM).

Compound `CCn1cc(C(=O)O)c(=O)c2cc(F)c(N3CCOC(CN)C3)c(F)c21` (stereo unspecified) yielded a solubility in [3] of 2900 µg/mL (≈ 7890 µM). Moreover, the MIC in the data set with Escherichia coli [1] stood at 1.56 µg/mL (≈ 4.25 µM); in the data set on Escherichia coli [4], 0.39 µg/mL (≈ 1.06 µM); against Enterococcus faecalis, 0.39 µg/mL (≈ 1.06 µM); in the data set with Pseudomonas aeruginosa it was 3.13 µg/mL (≈ 8.52 µM); against Staphylococcus aureus [2], 0.2 µg/mL (≈ 0.544 µM); against Staphylococcus aureus [13] it was 0.1 µg/mL (≈ 0.272 µM). In addition, the minimum inhibitory concentration (MIC) with Streptococcus pneumoniae worked out at 0.39 µg/mL (≈ 1.06 µM). Moreover, the IC50 in [5] and in data set [14] was more than 100 µM each time. The Currents in [6] was determined as 89%; in data set [7] it was 79%; in [8] it was 94%. In addition, the Convulsion in the data set on Mus musculus [9] and in the data set with Mus musculus [10] was 0% throughout. The ED50 in the data set with Escherichia coli [11] was determined as 0.232 mg mouse-1; with Staphylococcus aureus [12], 0.521 mg mouse-1.

For orientation: MIC means the lowest concentration found to suppress growth. A lower MIC goes with inhibition by little substance. In general, solubility refers to the dissolved amount per volume that the medium holds. For orientation: IC50 means the point on the concentration scale where inhibition reaches its midpoint.
